Reference: US20220235343A1, “NOVEL ADP-RIBOSYL CYCLASE AND INHIBITOR THEREOF” (INDUSTRIAL COOPERATION FOUNDATION CHONBUK NATIONAL …, priority 2019, published 2022)

Biological target: T1, new ADP-ribosyl cyclase (ADPRC) of SEQ ID NO 1 (Mus musculus, UniProt P14094)
T1 construct: FLAG (N); made in house; host or cells: HEK293 cells or MES13 cells (transient transfection)
Assay: Inhibition of NAD glycohydrolase (NADase) activity of new ADPRC
Format: biochemical
Settings: as compared to the control group; ε-NAD substrate, 37° C. 1 hour; inhibitor concentration not given; FIG. 5
Protocol: In order to investigate the ADP-ribosyl cyclase (ADPRC) activity of SEQ ID NO 1, a FLAG-ADPRC plasmid was prepared by ligating a cDNA sequence encoding ADPRC into a FLAG-CMV-2 vector and the overexpression of new ADPRC was induced by treating HEK293 cells or MES13 cells using a transfection reagent. The overexpressed new ADPRC was lysed with a lysis buffer. 45 μL of the lysed sample was treated with 5 μL of 2 mM ε-NAD (nicotinamide 1,N6-ethenoadenine dinucleotide) and incubated at 37° C. for 1 hour. Then, the enzyme-substrate reaction was stopped by treating with 50 μL of 10% trichloroacetic acid. After centrifuging for 10 minutes and adding 80 μL of the supernatant to 720 μL of 0.1 M sodium phosphate buffer, absorbance was measured at 297 nm (excitation) and 410 nm (emission) with a fluorescence spectrometer.
In order to find an inhibitor which inhibits the activation of new ADP-ribosyl cyclase (ADPRC) of SEQ ID NO 1, 5 μL of each of 4,4′-dihydroxyazobenzene (4-DHAB, TCI (Japan)), 2,2′-dihydroxyazobenzene (2-DAB, Sigma-Aldrich (USA)), 2-(3,4-dihydroxyphenyl)-3,5,7-trihydroxychromen-4-one (Quercetin, Sigma-Aldrich (USA)) and San4825 (synthesized by Kannt A et al. [Kannt A, Sicka K, Kroll K, Kadereit D, Gogelein H. Naunyn. Schmiedebergs. Arch. Pharmacol. 385: 717-727, 2012], China) and 2-(1,3-benzoxazol-2-ylamino)-1-methylquinazoline-4(1H)-one (2-BMQ) and 1,4-dicaffeoylquinic acid (1,4-DCQA, Biopurify (China), hereinafter DCQA), which were newly found through screening, was reacted with 40 μL of new ADPRC in iced water for 15 minutes. Then, reaction was conducted at 37° C. for 1 hour after treating with 5 μL of 2 mM ε-NAD (nicotinamide 1,N6-ethenoadenine dinucleotide). Then, the enzyme-substrate reaction was stopped by treating with 50 μL of 10% trichloroacetic acid. After centrifuging for 10 minutes and adding 80 μL of the supernatant to 720 μL of 0.1 M sodium phosphate buffer, absorbance was measured at 297 nm (excitation) and 410 nm (emission) using a fluorescence spectrometer.

## Cn1c(Nc2nc3ccccc3o2)nc(=O)c2ccccc21 [2-BMQ, 2-(1,3-benzoxazol-2-ylamino)-1-methylquinazoline-4(1H)-one]
  NAD glycohydrolase (NADase) activity inhibited: 36.49%

## Oc1ccc(N=Nc2ccc(O)cc2)cc1 [4-DHAB, 4,4′-dihydroxyazobenzene]
  NAD glycohydrolase (NADase) activity inhibited: 42.40%
